The test system of this test is HL-60 (TB) leukemia. Nature of the test: Cytotoxicity, HL-60(TB) leukemia. The note with it: Hydrochloride.

Several values for one entry are separate records, joined by “and”; a condition that tells them apart may be missing. Equal entries are not always repeated. Some results are limits rather than exact numbers.

As to `COc1cc(CNc2ccc(C)cc2)cc(OC)c1OC.Cl` [110a, 4-Methyl-N-(3,4,5-trimethoxybenzyl)aniline Hydrochloride], the “Log10 GI50, HL-60 (TB)” value is < -7.00 and -7.05.

(Values after patent US5430062A, “Stilbene derivatives as anticancer agents” (priority 1993, dated 1995).)
